How the values were obtained:
[1] = Cytotoxicity against HEK293T cells assessed as reduction in cell viability measured after 48 hrs by MTT assay; format: toxicity, cell-based, HEK-293T; conditions: human
[2] = Half-life in rat whole blood at 500 ng/ml by LC-MS/MS analysis; format: ADME, tissue-based
[3] = Drug uptake in human skin fibroblast lysosomes assessed as fold change in corrected total cell fluorescence at 50 uM measured after 2 hrs by LysoTracker Red DND-99 dye based laser scanning confocal microscopy relative to control; format: ADME, subcellular, Lysosome

| Compound | CC50 at 48 h [1] [µM] | half-life at 500 ng/ml [2] [min] | fold change (FC) [3] |
| --- | --- | --- | --- |
| CN1CCN(CCCC(=O)O[C@H]2C(C)(C)[C@H]3CC[C@]2(C)C3)CC1 | > 775 | – | – |
| CC1(C)[C@H]2CC[C@](C)(C2)[C@H]1OC(=O)CN1CCOCC1 | 291 | – | – |
| CN1CCN(CC(=O)O[C@H]2C(C)(C)[C@H]3CC[C@]2(C)C3)CC1 | 645 | – | – |
| CCN1CCN(CCC(=O)O[C@H]2C(C)(C)[C@H]3CC[C@]2(C)C3)CC1 | 356 | – | – |
| CC1(C)[C@H]2CC[C@](C)(C2)[C@H]1OC(=O)CCCN1CCCCC1 | 458 | – | – |
| CC1(C)[C@@H]2CC[C@@]1(C)[C@@H](OC(=O)CCN1CCCCC1)C2 | – | 20 | – |
| CN1CCN(CCC(=O)O[C@H]2C(C)(C)[C@H]3CC[C@]2(C)C3)CC1 | 454 | – | 0.33 |
| C[C@@H]1[C@H]2C[C@@H](C[C@H]1OC(=O)CCN1CCN(c3ccccc3)CC1)C2(C)C | 128 | – | – |
| C[C@@H]1[C@H]2C[C@@H](C[C@H]1OC(=O)CCCN1CCN(c3ccccc3)CC1)C2(C)C | 67 | – | – |
| C[C@@H]1[C@H]2C[C@@H](C[C@H]1OC(=O)CCN1CCN(C)CC1)C2(C)C | 318 | – | – |
| CCN1CCN(CCCC(=O)O[C@H]2C(C)(C)[C@H]3CC[C@]2(C)C3)CC1 | 404 | – | – |
| C[C@@H]1[C@H]2C[C@@H](C[C@H]1OC(=O)CN1CCN(C)CC1)C2(C)C | 628 | – | – |
| C[C@@H]1[C@H]2C[C@@H](C[C@H]1OC(=O)CN1CCN(c3ccccc3)CC1)C2(C)C | 59 | – | – |
| CC1CCN(CC(=O)O[C@H]2C(C)(C)[C@H]3CC[C@]2(C)C3)CC1 | 241 | – | – |
| CC1(C)[C@H]2CC[C@](C)(C2)[C@H]1OC(=O)CCCN1CCN(c2ccccc2)CC1 | 11 | – | – |
| CC1(C)[C@H]2CC[C@](C)(C2)[C@H]1OC(=O)CCN1CCN(c2ccccc2)CC1 | 21 | – | – |

| Compound | CC50 at 48 h [1] [µM] | half-life at 500 ng/ml [2] [min] | fold change (FC) [3] |
| --- | --- | --- | --- |
| CCN1CCN(CC(=O)O[C@H]2C(C)(C)[C@H]3CC[C@]2(C)C3)CC1 | 907 | – | – |
| CC1(C)[C@H]2CC[C@](C)(C2)[C@H]1OC(=O)CN1CCCCC1 | 229 | – | 0.6 |
| C[C@@H]1[C@H]2C[C@@H](C[C@H]1OC(=O)CCN1CCCCC1)C2(C)C | 334 | – | 0.37 |
| CC1CCN(CCC(=O)O[C@H]2C(C)(C)[C@H]3CC[C@]2(C)C3)CC1 | 188 | – | – |
| CC1(C)[C@H]2CC[C@](C)(C2)[C@H]1OC(=O)CCCN1CCOCC1 | 261 | – | 0.56 |
| CC1(C)[C@H]2CC[C@](C)(C2)[C@H]1OC(=O)CCN1CCCCC1 | 351 | – | 0.3 |
| CC1(C)[C@H]2CC[C@](C)(C2)[C@H]1OC(=O)CN1CCN(c2ccccc2)CC1 | 101 | – | – |
| C[C@@H]1[C@H]2C[C@@H](C[C@H]1OC(=O)CCCN1CCN(C)CC1)C2(C)C | 164 | – | – |
| C[C@@H]1[C@H]2C[C@@H](C[C@H]1OC(=O)CN1CCOCC1)C2(C)C | 199 | – | 0.56 |
| C[C@@H]1[C@H]2C[C@@H](C[C@H]1OC(=O)CCCN1CCCCC1)C2(C)C | 123 | – | – |
| C[C@@H]1[C@H]2C[C@@H](C[C@H]1OC(=O)CN1CCCCC1)C2(C)C | 314 | – | 0.46 |
| C[C@@H]1[C@H]2C[C@@H](C[C@H]1OC(=O)CCN1CCOCC1)C2(C)C | 281 | – | 0.57 |
| C[C@@H]1[C@H]2C[C@@H](C[C@H]1OC(=O)CCCN1CCOCC1)C2(C)C | 116 | – | – |
| CC1(C)[C@H]2CC[C@](C)(C2)[C@H]1OC(=O)CCN1CCOCC1 | 318 | – | – |
| CC1CCN(CCCC(=O)O[C@H]2C(C)(C)[C@H]3CC[C@]2(C)C3)CC1 | 130 | – | – |
| CN(C)CCOc1ccc(/C(=C(/CCCl)c2ccccc2)c2ccccc2)cc1 [TOREMIFENE] | 17 | – | – |
